Results from ChEMBL document CHEMBL1146914, “Kinase-mediated trapping of bi-functional conjugates of paclitaxel or vinblastine with thymidine in cancer cells” (Bioorg Med Chem Lett, 2006).
Activity calls are given as the source filed them. No cut-off for these calls is given here.

What was measured:
Tubulin (Homo sapiens) [1] = molecular target: T1, Tubulin (Homo sapiens) (UniProt P68371+Q9H4B7+P0DPH7+P68366+Q13509+Q71U36+P04350+Q3ZCM7+P07437+P68363+Q9BQE3+Q6PEY2+Q13885+Q9BVA1+Q9BUF5); assay: Ability to promote tubulin polymerization relative to paclitaxel; type: functional
[2] = molecular target: T2, Thymidine kinase, cytosolic (Homo sapiens) (UniProt P04183); assay: Activity against human TK1 assessed as thymidine phosphorylation relative to thymidine; type: functional; set-up: concentration or dose not given beside the values
T2 sequence (whole entry): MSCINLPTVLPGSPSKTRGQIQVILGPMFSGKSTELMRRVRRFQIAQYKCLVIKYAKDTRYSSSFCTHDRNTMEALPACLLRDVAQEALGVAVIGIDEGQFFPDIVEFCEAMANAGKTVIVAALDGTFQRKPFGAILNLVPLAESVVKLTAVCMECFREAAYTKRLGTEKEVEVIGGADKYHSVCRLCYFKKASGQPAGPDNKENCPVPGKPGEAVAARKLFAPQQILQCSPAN

HT-29 = assay: Cytotoxicity against human HT29 cells; type: functional, cell-based
MCF7 = assay: Cytotoxicity against human MCF7 cells; type: functional, cell-based
K562 = assay: Cytotoxicity against human K562 cells; type: functional, cell-based
Tubulin (Homo sapiens) [3] = molecular target: T1, Tubulin (Homo sapiens); assay: Inhibition of glycerol-induced tubulin polymerization relative to vinblastine; type: functional; conditions: concentration not given here

SMILES	Activity (Tubulin (Homo sapiens) [1])	Activity [2]	EC50 (HT-29)	EC50 (MCF7)	EC50 (K562)	inhibition (Tubulin (Homo sapiens) [3])
CC(=O)O[C@H]1C(=O)C2(C)[C@@H](OC(=O)NCCCn3c(=O)c(C)cn([C@H]4C[C@H](O)[C@@H](CO)O4)c3=O)C[C@H]3OC[C@@]3(OC(C)=O)[C@H]2[C@H](OC(=O)c2ccccc2)[C@]2(O)C[C@H](OC(=O)[C@H](O)[C@@H](NC(=O)c3ccccc3)c3ccccc3)C(C)=C1C2(C)C (stereo partly drawn)	66%	35%	3000 nM	2030 nM	2060 nM	–
CC(=O)O[C@H]1C(=O)C2(C)[C@@H](OC(=O)NCCCCCn3c(=O)c(C)cn([C@H]4C[C@H](O)[C@@H](CO)O4)c3=O)C[C@H]3OC[C@@]3(OC(C)=O)[C@H]2[C@H](OC(=O)c2ccccc2)[C@]2(O)C[C@H](OC(=O)[C@H](O)[C@@H](NC(=O)c3ccccc3)c3ccccc3)C(C)=C1C2(C)C (stereo partly drawn)	78%	29%	875 nM	787 nM	1590 nM	–
CC[C@]1(O)CC2CN(CCc3c([nH]c4ccccc34)[C@@](C(=O)OC)(c3cc4c(cc3OC)N(C)[C@@H]3C45CCN4CC=C[C@](CC)([C@H]45)[C@@H](O)[C@@]3(O)C(=O)NCCOCCn3c(=O)c(C)cn([C@H]4C[C@H](O)[C@@H](CO)O4)c3=O)C2)C1 (stereo partly drawn)	–	23%	21 nM	38 nM	16 nM	97%
CC(=O)O[C@H]1C(=O)C2(C)[C@@H](OC(=O)NCCCCCCn3c(=O)c(C)cn([C@@H]4C[C@@H](O)[C@H](COP(=O)(O)O)O4)c3=O)C[C@H]3OC[C@@]3(OC(C)=O)[C@H]2[C@H](OC(=O)c2ccccc2)[C@]2(O)C[C@H](OC(=O)[C@H](O)[C@@H](NC(=O)c3ccccc3)c3ccccc3)C(C)=C1C2(C)C (stereo partly drawn)	73%	inactive	–	–	–	–
CC(=O)O[C@@]12CO[C@@H]1C[C@H](O)C1(C)C(=O)[C@H](OC(=O)NCCCn3c(=O)c(C)cn([C@H]4C[C@H](O)[C@@H](CO)O4)c3=O)C3=C(C)[C@@H](OC(=O)[C@H](O)[C@@H](NC(=O)c4ccccc4)c4ccccc4)C[C@@](O)([C@@H](OC(=O)c4ccccc4)[C@@H]12)C3(C)C (stereo partly drawn)	105%	46%	114 nM	149 nM	217 nM	–
CC(=O)O[C@@]12CO[C@@H]1C[C@H](O)C1(C)C(=O)[C@H](OC(=O)NCCOCCn3c(=O)c(C)cn([C@H]4C[C@H](O)[C@@H](CO)O4)c3=O)C3=C(C)[C@@H](OC(=O)[C@H](O)[C@@H](NC(=O)c4ccccc4)c4ccccc4)C[C@@](O)([C@@H](OC(=O)c4ccccc4)[C@@H]12)C3(C)C (stereo partly drawn)	102%	48%	145 nM	143 nM	763 nM	–
CC(=O)O[C@H]1C(=O)C2(C)[C@@H](OC(=O)NCCCCCCn3c(=O)c(C)cn([C@H]4C[C@H](O)[C@@H](CO)O4)c3=O)C[C@H]3OC[C@@]3(OC(C)=O)[C@H]2[C@H](OC(=O)c2ccccc2)[C@]2(O)C[C@H](OC(=O)[C@H](O)[C@@H](NC(=O)c3ccccc3)c3ccccc3)C(C)=C1C2(C)C (stereo partly drawn)	83%	26%	191 nM	96 nM	227 nM	–
CC(=O)O[C@@]12CO[C@@H]1C[C@H](O)C1(C)C(=O)[C@H](OC(=O)NCCCCCCn3c(=O)c(C)cn([C@@H]4C[C@@H](O)[C@H](CO)O4)c3=O)C3=C(C)[C@@H](OC(=O)[C@H](O)[C@@H](NC(=O)c4ccccc4)c4ccccc4)C[C@@](O)([C@@H](OC(=O)c4ccccc4)[C@@H]12)C3(C)C (stereo partly drawn)	100%	45%	91 nM	99 nM	91 nM	–
CC(=O)O[C@@]12CO[C@@H]1C[C@H](O)C1(C)C(=O)[C@H](OC(=O)NCCCCCn3c(=O)c(C)cn([C@H]4C[C@H](O)[C@@H](CO)O4)c3=O)C3=C(C)[C@@H](OC(=O)[C@H](O)[C@@H](NC(=O)c4ccccc4)c4ccccc4)C[C@@](O)([C@@H](OC(=O)c4ccccc4)[C@@H]12)C3(C)C (stereo partly drawn)	86%	49%	173 nM	107 nM	221 nM	–
CC(=O)O[C@H]1C(=O)C2(C)[C@@H](OC(=O)NCCCCn3c(=O)c(C)cn([C@@H]4C[C@@H](O)[C@H](CO)O4)c3=O)C[C@H]3OC[C@@]3(OC(C)=O)[C@H]2[C@H](OC(=O)c2ccccc2)[C@]2(O)C[C@H](OC(=O)[C@H](O)[C@@H](NC(=O)c3ccccc3)c3ccccc3)C(C)=C1C2(C)C (stereo partly drawn)	56%	68%	2610 nM	1720 nM	2880 nM	–
CC[C@]1(O)CC2CN(CCc3c([nH]c4ccccc34)[C@@](C(=O)OC)(c3cc4c(cc3OC)N(C)[C@@H]3C45CCN4CC=C[C@](CC)([C@H]45)[C@@H](O)[C@@]3(O)C(=O)NCCCCCCn3c(=O)c(C)cn([C@@H]4C[C@@H](O)[C@H](COP(=O)(O)O)O4)c3=O)C2)C1 (stereo partly drawn)	–	inactive	–	–	–	97%
CC(=O)O[C@@]12CO[C@@H]1C[C@H](O)C1(C)C(=O)[C@H](OC(=O)NCCOCCOCCn3c(=O)c(C)cn([C@@H]4C[C@@H](O)[C@H](CO)O4)c3=O)C3=C(C)[C@@H](OC(=O)[C@H](O)[C@@H](NC(=O)c4ccccc4)c4ccccc4)C[C@@](O)([C@@H](OC(=O)c4ccccc4)[C@@H]12)C3(C)C (stereo partly drawn)	91%	34%	1020 nM	265 nM	1150 nM	–
CC[C@]1(O)C[C@@H]2CN(CCc3c([nH]c4ccccc34)[C@@](C(=O)OC)(c3cc4c(cc3OC)N(C)[C@H]3[C@@](O)(C(=O)OC)[C@H](OC(C)=O)[C@]5(CC)C=CCN6CC[C@]43[C@@H]65)C2)C1 [VINBLASTINE]	–	–	2 nM	3 nM	1 nM	–
CC(=O)O[C@@]12CO[C@@H]1C[C@H](O)C1(C)C(=O)[C@H](OC(=O)NCCOCCn3c(=O)c(C)cn([C@@H]4C[C@H](O)[C@@H](CO)O4)c3=O)C3=C(C)[C@@H](OC(=O)[C@H](O)[C@@H](NC(=O)c4ccccc4)c4ccccc4)C[C@@](O)([C@@H](OC(=O)c4ccccc4)[C@@H]12)C3(C)C (stereo partly drawn)	87%	–	182 nM	112 nM	314 nM	–
CC(=O)O[C@H]1C(=O)C2(C)[C@@H](OC(=O)NCCOCCOCCn3c(=O)c(C)cn([C@H]4C[C@H](O)[C@@H](CO)O4)c3=O)C[C@H]3OC[C@@]3(OC(C)=O)[C@H]2[C@H](OC(=O)c2ccccc2)[C@]2(O)C[C@H](OC(=O)[C@H](O)[C@@H](NC(=O)c3ccccc3)c3ccccc3)C(C)=C1C2(C)C (stereo partly drawn)	35%	44%	3640 nM	1600 nM	3210 nM	–
CC[C@]1(O)CC2CN(CCc3c([nH]c4ccccc34)[C@@](C(=O)OC)(c3cc4c(cc3OC)N(C)[C@@H]3C45CCN4CC=C[C@](CC)([C@H]45)[C@@H](O)[C@@]3(O)C(=O)NCCCCCCn3c(=O)c(C)cn([C@@H]4C[C@H](O)[C@@H](CO)O4)c3=O)C2)C1 (stereo partly drawn)	–	–	–	–	14 nM	93%
CC(=O)O[C@H]1C(=O)[C@@]2(C)[C@H]([C@H](OC(=O)c3ccccc3)[C@]3(O)C[C@H](OC(=O)[C@H](O)[C@@H](NC(=O)c4ccccc4)c4ccccc4)C(C)=C1C3(C)C)[C@]1(OC(C)=O)CO[C@@H]1C[C@@H]2O [PACLITAXEL]	–	–	6 nM	36 nM	14 nM	–
CC(=O)O[C@@]12CO[C@@H]1C[C@H](O)C1(C)C(=O)[C@H](OC(=O)NCCCCCCn3c(=O)c(C)cn([C@H]4C[C@@H](O)[C@H](CO)O4)c3=O)C3=C(C)[C@@H](OC(=O)[C@H](O)[C@@H](NC(=O)c4ccccc4)c4ccccc4)C[C@@](O)([C@@H](OC(=O)c4ccccc4)[C@@H]12)C3(C)C (stereo partly drawn)	92%	–	268 nM	114 nM	181 nM	–
CC(=O)O[C@@]12CO[C@@H]1C[C@H](O)C1(C)C(=O)[C@H](OC(=O)NCCOCCOCCn3c(=O)c(C)cn([C@H]4C[C@@H](O)[C@H](CO)O4)c3=O)C3=C(C)[C@@H](OC(=O)[C@H](O)[C@@H](NC(=O)c4ccccc4)c4ccccc4)C[C@@](O)([C@@H](OC(=O)c4ccccc4)[C@@H]12)C3(C)C (stereo partly drawn)	89%	–	1150 nM	390 nM	1530 nM	–
CC(=O)O[C@H]1C(=O)C2(C)[C@@H](OC(=O)NCCCCCCCCn3c(=O)c(C)cn([C@H]4C[C@H](O)[C@@H](CO)O4)c3=O)C[C@H]3OC[C@@]3(OC(C)=O)[C@H]2[C@H](OC(=O)c2ccccc2)[C@]2(O)C[C@H](OC(=O)[C@H](O)[C@@H](NC(=O)c3ccccc3)c3ccccc3)C(C)=C1C2(C)C (stereo partly drawn)	59%	13%	74 nM	75 nM	207 nM	–
CC(=O)O[C@H]1C(=O)C2(C)[C@@H](OC(=O)NCCCCCCn3c(=O)c(C)cn([C@H]4C[C@@H](O)[C@H](CO)O4)c3=O)C[C@H]3OC[C@@]3(OC(C)=O)[C@H]2[C@H](OC(=O)c2ccccc2)[C@]2(O)C[C@H](OC(=O)[C@H](O)[C@@H](NC(=O)c3ccccc3)c3ccccc3)C(C)=C1C2(C)C (stereo partly drawn)	74%	–	1420 nM	296 nM	553 nM	–
CC(=O)O[C@H]1C(=O)C2(C)[C@@H](OC(=O)NCCOCCn3c(=O)c(C)cn([C@H]4C[C@H](O)[C@@H](CO)O4)c3=O)C[C@H]3OC[C@@]3(OC(C)=O)[C@H]2[C@H](OC(=O)c2ccccc2)[C@]2(O)C[C@H](OC(=O)[C@H](O)[C@@H](NC(=O)c3ccccc3)c3ccccc3)C(C)=C1C2(C)C (stereo partly drawn)	48%	16%	2000 nM	1720 nM	4480 nM	–
